Where a SMILES comes first, the peptide text is derived from it. The star is where a group is joined. Cbz = O=C(OCc1ccccc1)*
How the values were obtained:
[1] = tested on: Slug; assay: Western blot of Slug in GBM cells; assay type: cell-based, human; conditions: MG132 10 μM 30 mins pretreatment, then GMI 0.6 μM 3 h
Experimental: FIGS. 10A-10D show GMI induces Slug degradation in GBM cells. […] The mRNA level of Slug was measured using qPCR.
Cell extracts (30 μg) were then subjected to one-dimensional SDS-PAGE (8-12% separating gel) electrophoresis and were transferred to a PVDF membrane (0.22 μm, Millipore) by using a transfer apparatus (Bio-Rad, Richmond, CA). Membranes were blocked with 5% BSA in TBST buffer containing 0.05% Tween20. The expressions of proteins were identified by indicated antibodies. The expression of tubulin as an internal control. The indicated bands on the PVDF membrane were quantified using densitometry analysis by ImageJ software (National Institute of Mental Health, Bethesda, MD) and compared to results of the control group.

[2] = Rat weight and serum AST, ALT, BUN, creatinine in C6-bearing rats; assay type: in vivo; conditions: rat sera, TMZ 30 mg/kg ip
Experimental: FIGS. 7A-7F show GMI combined with TMZ suppressed tumorigenesis in C6-bearing rats. FIG. 7A indicates Schematic design of the in vivo post combined therapy of GMI and TMZ in C6-bearing rats. The tumor volume in rat received GMI (0.6 mg/kg) and […]. […] FIG. 7C indicates the tumor volume was measured; each bar represents the mean+SD. […] FIGS. 7E and 7F show the AST and ALT (hepatic function: shown in FIG. 7E) as well as BUN and creatinine (renal function; shown in FIG. 7F) of rat sera were analyzed.
Five days after tumor implantation surgery, rats were randomly assigned into four group (6 animals/group) to be treated with different drugs every other day for 4 times, i.e. on day 5, 7, 9, 11. • Group 1 (control): intravenous administration of saline. • Group 2 (GMI): intravenous (iv) administration of GMI (0.6 mg/Kg) • Group 3 (TMZ): intraperitoneal (ip) administration of TMZ (30 mg/Kg) • Group 4 (GMI+TMZ): combination of GMI (iv, 0.6 mg/Kg) and TMZ (ip, 30 mg/Kg)
MRI imaging acquisition was performed on day 13 and a half of the animals in each group were sacrificed on day 15 for immunohistochemistry study. After tumor volume was measured, specimens from the animals in the histology group were subjected to other histological evaluations described as follows.

Compound | GMI-induced Slug degradation [1] | AST/ALT ([2]; GMI 0.6 mg/kg iv) | BUN [2]
CC(C)C[C@@H](C=O)NC(=O)[C@H](CC(C)C)NC(=O)[C@H](CC(C)C)NC(=O)OCc1ccccc1 [MG132] (Cbz-Leu-Leu-Leu-aldehyde) | counteracted GMI-induced Slug degradation | – | –
Cn1nnc2c(C(N)=O)ncn2c1=O [TMZ, Temozolomide] | – | increased AST/ALT expression | slightly increased BUN expression

— patent US20240216465A1, “METHOD FOR TREATING REFRACTORY BRAIN TUMOR” (National Yang Ming Chiao Tung University, priority 2023, published 2024)
